In patent US4672036A, “Pure cultures of Kibdelsporangium aridum Shearer gen. nov., sp. nov. ATCC 39323 and mutants thereof” (SmithKline Beckman Corporation, priority 1985, dated 1987):
Values after ≈ are worked out from the molar mass of the structure shown. Values joined by “and” are separate entries in the source; they are usually repeats but may differ in a detail not shown here. Equal entries are not always repeated. Where two headings read alike, the source gives them in different places.

Experiments:
[1] = tested on: Enterobacter cloacae HH31254; type: cell-based; settings: Table A
Providencia SK & F 276 = type: cell-based; settings: Table A
B. fragilis SK & F 3060 = type: cell-based, Bacteroides fragilis; settings: Table D, Anaerobes
[2] = tested on: E. coli 12140 (SK & F 809); type: cell-based
[3] = tested on: Staph. aureus 209P-Mutant; assay: microbe, parasite or virus in culture; type: cell-based; settings: Table E
Swine in vitro model = assay: swine in vitro model (growth promotant activity)
[4] = tested on: Salmonella gallinarum BC595
rumen in vitro model [5] = assay: rumen in vitro model (growth promotant activity); design: species or system steer
[6] = tested on: Staph. aureus SK & F 674-P6 Mutant; assay: microbe, parasite or virus in culture; type: cell-based; settings: Table E
[7] = tested on: Pseudomonas aeruginosa HH63; type: cell-based; settings: Table A
[8] = tested on: Staph. epidermidis SK & F 2683; type: cell-based; settings: Table E
rumen in vitro model [9] = assay: rumen in vitro model (growth promotant activity); design: species or system steer; remark: listed apart in the source
Description: The protocol for the rumen in vitro model is analogous to the protocol for the swine in vitro model with the following modifications:
(1) A 400 kg steer is surgically prepared with a rumen cannula.
(2) The animal is fed one time a day with the following ration:
(3) Manipulation of VFA production is described as the production ratio of propionate as a percentage of total VFA produced.
(4) Sampling of the material, via the cannula, is at 120 minutes post feeding.

[10] = tested on: Proteus morgani SK & F 179; type: cell-based; settings: Table A
[11] = tested on: Strep. faecalis SK & F 657; type: cell-based; settings: Table E
[12] = tested on: Kleb. pneumoniae 4200 (SK & F 798); type: cell-based; settings: Table A
[13] = tested on: B. thetaiotamicron SK & F 3089; type: cell-based; settings: Table D, Anaerobes
[14] = tested on: Proteus mirabilis SK & F 444; type: cell-based; settings: Table A
[15] = tested on: Serratia marcesens ATCC 13880; type: cell-based; settings: Table A
[16] = tested on: Bacteroides fragilis ATCC 25285; type: cell-based; settings: Table D, Anaerobes
solubility = type: physicochemical
[17] = tested on: Staph. epidermidis SK & F 2265; type: cell-based; settings: Table E
[18] = tested on: Fusobacterium nucleatum ATCC 25586; type: cell-based; settings: Table D, Anaerobes
Strep. faecilis HH34358 = type: cell-based; settings: Table A
[19] = tested on: Staph. aureus SK & F 2613; type: cell-based; settings: Table B, Methicillin Sensitive
[20] = tested on: Listeria monocytogenes SK & F 2255; type: cell-based; settings: Table A
B. loeochii SK & F 3087 = type: cell-based; settings: Table D, Anaerobes
[21] = tested on: Clostridium perfringens MCP-1; settings: Table D, Anaerobes
[22] = tested on: C. perfringens ATCC 19408; settings: Table D, Anaerobes
C. perfringens MCP-2 = settings: Table D, Anaerobes
B. fragilis H145 = type: cell-based, Bacteroides fragilis; settings: Table D, Anaerobes
[23] = H2O, methanol, dimethylsulfoxide, dimethylformamide
[24] = ethanol, acetonitrile, acetone, diethylether, aliphatic hydrocarbons

| SMILES | MIC [1] [µg/mL] | MIC (Providencia SK & F 276) [µg/mL] | MIC (B. fragilis SK & F 3060) [µg/mL] | MIC ([2]; Table A) [µg/mL] | GLU (glucose) (Swine in vitro model) | LYS (lysine) (Swine in vitro model) | MIC ([4]; Table A) [µg/mL] | LYS (lysine) (rumen in vitro model [5]) | MIC [7] [µg/mL] | VFA (total of volatile fatty acids) (rumen in vitro model [9]) | MIC [10] [µg/mL] | MIC [12] [µg/mL] | MIC [13] [µg/mL] | MIC [14] [µg/mL] | MIC [15] [µg/mL] | MIC [16] [µg/mL] | solubility (solubility; [23]) | solubility (solubility; [24]) | MIC [18] [µg/mL] | also measured |
| --- | --- | --- | --- | --- | --- | --- | --- | --- | --- | --- | --- | --- | --- | --- | --- | --- | --- | --- | --- | --- |
| CCCCCCCCCC(=O)N[C@H]1[C@H](Oc2c3cc4cc2Oc2c(Cl)cc(cc2Cl)[C@@H](O)[C@@H]2NC(=O)[C@H](NC(=O)[C@@H]4NC(=O)[C@H]4NC(=O)[C@H](NC(=O)[C@H](NC)c5ccc(O)c(c5)Oc5cc(O)c(Cl)c4c5)[C@H](O)c4ccc(c(Cl)c4)O3)c3ccc(O)c(c3)-c3c(O[C@H]4O[C@H](CO)[C@@H](O)[C@H](O)[C@@H]4O)cc(O)cc3[C@@H](C(=O)O)NC2=O)O[C@H](C(=O)O)[C@@H](O)[C@@H]1O [AAD 216A] | > 100 | > 100 | 32 (≈ 17.9 µM) | > 100 | 187 % Control and 191 % Control | 63 % Control and 50 % Control and 94 % Control | > 100 | 114 % Control | > 100 | 111 % Control and 94 % Control | > 100 | > 100 | > 32 | > 100 | > 100 | 32 (≈ 17.9 µM) | soluble | insoluble | 32 (≈ 17.9 µM) | MIC ([2]; Table E): > 100 µg/mL; MIC [3]: 100 µg/mL (≈ 55.9 µM); MIC ([4]; Table E): > 100 µg/mL; MIC [6]: ~ 100 μg/ml; MIC [8]: 100 µg/mL (≈ 55.9 µM); MIC [11]: 0.8 µg/mL (≈ 0.447 µM); MIC [17]: 100 µg/mL (≈ 55.9 µM) |
| CN[C@H]1C(=O)N[C@H]2C(=O)N[C@H](C(=O)N[C@H]3C(=O)N[C@H]4C(=O)N[C@H](C(=O)N[C@H](C(=O)O)c5cc(O)cc(O[C@H]6O[C@H](CO)[C@@H](O)[C@H](O)[C@@H]6O)c5-c5cc4ccc5O)[C@H](O)c4cc(Cl)c(c(Cl)c4)Oc4cc3cc(c4O[C@@H]3O[C@H](C(=O)O)[C@@H](O)[C@H](O)[C@H]3NC(=O)CCCCCCCC(C)C)Oc3ccc(cc3Cl)[C@H]2O)c2cc(cc(O)c2Cl)Oc2cc1ccc2O [AAD 216B] | > 100 | > 100 | 16 (≈ 8.87 µM) | > 100 | 190 % Control and 184 % Control and 97 % Control | 50 % Control and 55 % Control | > 100 | 124 % Control and 107 % Control and 103 % Control | > 100 | 111 % Control and 121 % Control | > 100 | > 100 | 32 (≈ 17.7 µM) | > 100 | > 100 | 32 (≈ 17.7 µM) | soluble | insoluble | 32 (≈ 17.7 µM) | MIC (Strep. faecilis HH34358): 0.4 µg/mL (≈ 0.222 µM); MIC [19]: 1.6 µg/mL (≈ 0.887 µM); MIC [20]: 0.4 µg/mL (≈ 0.222 µM); MIC (B. loeochii SK & F 3087): 16 µg/mL (≈ 8.87 µM); MIC [21]: 0.125 µg/mL (≈ 0.0693 µM); MIC [22]: 0.125 µg/mL (≈ 0.0693 µM); MIC (C. perfringens MCP-2): 0.125 µg/mL (≈ 0.0693 µM); MIC (B. fragilis H145): 16 µg/mL (≈ 8.87 µM) |
